In ChEMBL document CHEMBL1153838, “Optimization of the dosage of flucytosine in combination with amphotericin B for disseminated candidiasis: a pharmacodynamic rationale for reduced dosing” (2007):
In brackets after ≈: the same amount, converted by molar mass.

Tests used:
Assay type in all cases: functional
Candida [1] = experiment: Antifungal activity against Candida isolates
[2] = T>MIC in Candida species infected patients at 25 mg/kg/day administered as four divided doses
Candida [3] = experiment: Antifungal activity against Candida species infected patients assessed as residual fungal burden at 0.1 mg/kg/day administered as single dose
Candida [4] = experiment: Antifungal activity against Candida species infected patients assessed as residual fungal burden at 0.3 mg/kg/day administered as single dose
Candida [5] = experiment: Antifungal activity against Candida species infected patients assessed as residual fungal burden at 0.6 mg/kg/day administered as single dose
Candida albicans = experiment: Antifungal activity against Candida albicans isolates by broth microdilution method
Candida [6] = experiment: Antifungal activity against Candida isolates by CLSI methods

SMILES	MIC (Candida [1]) [µg/mL]	T>MIC [2] [%]	log10CFU/g (Candida [3])	log10CFU/g (Candida [4])	log10CFU/g (Candida [5])	MIC (Candida albicans) [µg/mL]	MIC90 (Candida [6]) [µg/mL]
C[C@@H]1[C@H](O)[C@@H](C)/C=C/C=C/C=C/C=C/C=C/C=C/C=C/[C@H](O[C@@H]2O[C@H](C)[C@@H](O)[C@H](N)[C@@H]2O)C[C@@H]2O[C@](O)(C[C@@H](O)C[C@@H](O)[C@H](O)CC[C@@H](O)C[C@@H](O)CC(=O)O[C@H]1C)C[C@H](O)[C@H]2C(=O)O [AMPHOTERICIN B]	≤ 1	100	2.2	1	0.6	–	–
Nc1nc(=O)[nH]cc1F [FLUCYTOSINE]	–	–	–	–	–	0.125 (≈ 0.968 µM)	1 (≈ 7.75 µM)
